Assay results reported in patent publication US11679159B2, “Compositions for transfecting resistant cell types” (Precision Nanosystems ULC, priority 2018, dated 2023).

Test system: NPC
Assay: GFP levels in NPC measured by flow cytometry, KC2 and DLin-MC3-DMA substituted as ionizable lipid
Type: cell-based, human
Settings: 48 H, ionizable lipid in the Lipid Mix K, over the control Lipid Mix A (FIG. 11)
From the text: Two commonly used ionizable lipids, KC2 and DLin-MC3-DMA, were substituted for the ionizable lipid component for Lipid Mixes A and K. NPC were transfected as specified above, and the results at 48 H for GFP Median Fluorescent Intensity via flow cytometry are shown in FIG. 11. Both KC2 and DLin-MC3-DMA (MC3 in the graph) were effective in the Lipid Mix K to enhance GFP expression over the control Lipid Mix A. PNI-IL-1 is 1,17-bis(2-octylcyclopropyl)heptadecan-9-yl 4-(dimethylamino)butanoate HCl).

| SMILES | GFP Median Fluorescent Intensity via flow cytometry |
| --- | --- |
| CCCCC/C=C\C/C=C\CCCCCCCCC1(CCCCCCCC/C=C\C/C=C\CCCCC)OCC(CCN(C)C)O1 (centres unmarked) [KC2, 2,2-dilinoleyl-4-(2-dimethylaminoethyl)-[1,3]-dioxolane] | effective |
| CCCCCC=CCC=CCCCCCCCCC(CCCCCCCCC=CCC=CCCCCC)OC(=O)CCCN(C)C (centres unmarked) [DLin-MC3-DMA, heptatriaconta-6,9,28,31-tetraen-19-yl 4-(dimethylamino)butanoate] | effective |
